According to PMC5507300, “Antibacterial small molecules targeting the conserved TOPRIM domain of DNA gyrase” (PLoS ONE, 2017):
“Also recorded” adds a separate entry of the source.

Legend:
E. coli DNA gyrase [1] = biological target: T1, E. coli DNA gyrase (Escherichia coli, UniProt P0AES6); assay: Agarose gel DNA gyrase supercoiling assay, E. coli; format: biochemical
T1 construct: purchased New England Biolabs, Beverly, MA
Description: (§1) Conditions to measure the supercoiling of a relaxed, closed-circular plasmid substrate and cleavage complex stabilization in agarose gels were adapted from the literature and carried out as described below. Plasmid supercoiling reactions were assembled by combining 0.4 μL compound (in 100% DMSO), 12.5 μL H2O, 4 μL 5Xbuffer, 0.4 μL relaxed pUC19 DNA substrate (0.5 μg), […] dilute DNA gyrase (buffer, substrate, and enzyme from New England Biolabs, Beverly, MA). Alternatively the substrate pHOT-1 (TopoGEN, Buena Vista, CO) was used as noted (the substrate from New England Biolabs has been discontinued). P. aeruginosa DNA gyrase was supplied by Inspiralis, Norwich, UK. Reactions were allowed to proceed for 30 min. at 37°C after which 5 μL of stop buffer (5% sarkosyl, 25% glycerol, 1X Blue Juice [Invitrogen, Carlsbad, CA]) were added. Reactions were then extracted with 20 μL chloroform/isoamylOH (24:1) and a portion of the aqueous phase was loaded into a well in a 1% agarose/Tris-borate EDTA gel. Electrophoresis was conducted at 35 VDC until the loading dye migrated about 6.5 cm down the gel. DNA in the gel was then stained in 0.5 μg/mL ethidium bromide in water for 30 min. and rinsed (3X) in H2O. The gel was illuminated with UV light, photographed, and DNA quantitated with an Alpha Imager and accompanying software (ProteinSimple, San Jose, CA).

E. coli DNA gyrase [2] = biological target: T1, E. coli DNA gyrase; assay: Cleavage complex stabilization gel assay; format: biochemical; details: supercoiled pUC19
Description: Cleavage complex stabilization was detected by assembling a gyrase reaction, as above, containing 0.4μL compound (in 100% DMSO), 12.5 μL H2O, 4 μL 5X buffer, 0.4 μL supercoiled pUC19 DNA substrate (0.4 μg), 3 μL gyrase (15 U). The reaction was incubated at 25°C for 60 min. after which 3 μL 2% SDS and 3 μL 1 mg/mL proteinase K were added. […] DNA in the gel was illuminated with UV light and photographed as above.

P. aeruginosa DNA gyrase = biological target: T2, P. aeruginosa DNA gyrase (Pseudomonas aeruginosa, UniProt Q9I7C2); assay: Agarose gel DNA gyrase supercoiling assay, P. aeruginosa; format: biochemical; details: gel-based assay, Fig 3B
T2 construct: purchased Inspiralis, Norwich, UK
Description: as §1, with “CA). […]” for “CA).”

E. coli topoisomerase IV = biological target: T3, E. coli topoisomerase IV (Escherichia coli, UniProt P20083); assay: E. coli topoisomerase IV decatenation reaction; format: biochemical; details: maximum achievable concentration (200 μM), kDNA decatenation
T3 construct: purchased TopoGEN, Inc

E. coli HS151 = assay: In vitro time-dependent bactericidal study; format: cell-based
Description: A culture of E. coli HS151 in CAMH broth was grown overnight (18 hrs.) at 37°C, diluted 1:10,000 in 200 mL of fresh CAMH broth and further incubated for 1 hour at 37°C with shaking. A time-zero sample was then removed and 20 mL portions of the remaining culture were transferred into 125 mL vented flasks to which were added MRL-1082 or control antibiotics, at the indicated concentrations. These flasks were then incubated at 37°C with shaking (70 rpm). Samples were withdrawn at the indicated times, plated on blood agar (trypticase soy agar with 5% sheep blood, Becton-Dickinson) and, following overnight growth at 37°C, colonies were counted to determine CFU/mL.

T2 sequence (Q9I7C2 whole entry): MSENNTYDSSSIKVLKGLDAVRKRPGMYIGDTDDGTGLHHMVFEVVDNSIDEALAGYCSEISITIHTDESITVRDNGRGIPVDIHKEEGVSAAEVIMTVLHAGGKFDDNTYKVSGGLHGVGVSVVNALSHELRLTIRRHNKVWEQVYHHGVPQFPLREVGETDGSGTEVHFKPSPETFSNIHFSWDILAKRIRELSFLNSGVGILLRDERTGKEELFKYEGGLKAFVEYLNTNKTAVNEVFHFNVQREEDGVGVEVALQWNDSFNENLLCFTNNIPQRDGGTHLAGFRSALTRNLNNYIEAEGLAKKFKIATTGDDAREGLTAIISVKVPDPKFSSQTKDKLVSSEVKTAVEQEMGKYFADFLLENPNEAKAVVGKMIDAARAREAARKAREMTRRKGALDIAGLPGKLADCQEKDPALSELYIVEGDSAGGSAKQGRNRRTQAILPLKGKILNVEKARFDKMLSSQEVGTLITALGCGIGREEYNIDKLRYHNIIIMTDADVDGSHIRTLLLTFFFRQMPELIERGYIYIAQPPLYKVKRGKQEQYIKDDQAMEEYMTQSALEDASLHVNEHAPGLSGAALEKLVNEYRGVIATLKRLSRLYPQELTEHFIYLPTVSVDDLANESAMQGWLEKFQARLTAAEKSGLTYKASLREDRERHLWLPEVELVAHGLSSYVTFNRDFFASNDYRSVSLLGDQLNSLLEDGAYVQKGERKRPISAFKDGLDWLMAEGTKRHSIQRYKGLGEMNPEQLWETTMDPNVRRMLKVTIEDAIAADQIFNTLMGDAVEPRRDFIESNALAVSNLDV
T2 sequence (P48372 whole entry, further chain): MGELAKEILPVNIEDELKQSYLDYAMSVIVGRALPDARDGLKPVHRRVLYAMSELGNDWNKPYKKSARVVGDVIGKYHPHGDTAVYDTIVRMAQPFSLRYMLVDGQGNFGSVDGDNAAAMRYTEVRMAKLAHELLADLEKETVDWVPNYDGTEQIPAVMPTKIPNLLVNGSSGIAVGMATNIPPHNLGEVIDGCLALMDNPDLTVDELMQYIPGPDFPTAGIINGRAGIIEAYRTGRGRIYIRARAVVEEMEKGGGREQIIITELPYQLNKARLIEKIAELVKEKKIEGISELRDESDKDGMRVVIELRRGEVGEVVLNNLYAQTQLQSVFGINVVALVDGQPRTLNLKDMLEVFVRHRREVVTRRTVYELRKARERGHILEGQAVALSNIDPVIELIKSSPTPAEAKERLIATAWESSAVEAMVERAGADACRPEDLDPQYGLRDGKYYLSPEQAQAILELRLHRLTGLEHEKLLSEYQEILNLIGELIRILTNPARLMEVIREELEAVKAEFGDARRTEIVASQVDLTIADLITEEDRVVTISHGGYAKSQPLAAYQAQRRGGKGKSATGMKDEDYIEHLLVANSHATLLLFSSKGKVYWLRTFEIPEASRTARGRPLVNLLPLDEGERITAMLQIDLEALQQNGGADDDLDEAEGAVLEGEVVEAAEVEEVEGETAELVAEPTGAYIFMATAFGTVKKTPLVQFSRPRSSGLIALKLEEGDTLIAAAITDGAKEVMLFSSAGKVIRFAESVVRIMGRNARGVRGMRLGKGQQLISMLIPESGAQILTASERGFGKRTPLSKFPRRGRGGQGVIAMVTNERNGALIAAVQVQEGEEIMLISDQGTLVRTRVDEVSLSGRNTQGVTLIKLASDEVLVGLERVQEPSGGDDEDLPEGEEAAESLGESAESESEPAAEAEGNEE
T3 sequence (P20083 whole entry): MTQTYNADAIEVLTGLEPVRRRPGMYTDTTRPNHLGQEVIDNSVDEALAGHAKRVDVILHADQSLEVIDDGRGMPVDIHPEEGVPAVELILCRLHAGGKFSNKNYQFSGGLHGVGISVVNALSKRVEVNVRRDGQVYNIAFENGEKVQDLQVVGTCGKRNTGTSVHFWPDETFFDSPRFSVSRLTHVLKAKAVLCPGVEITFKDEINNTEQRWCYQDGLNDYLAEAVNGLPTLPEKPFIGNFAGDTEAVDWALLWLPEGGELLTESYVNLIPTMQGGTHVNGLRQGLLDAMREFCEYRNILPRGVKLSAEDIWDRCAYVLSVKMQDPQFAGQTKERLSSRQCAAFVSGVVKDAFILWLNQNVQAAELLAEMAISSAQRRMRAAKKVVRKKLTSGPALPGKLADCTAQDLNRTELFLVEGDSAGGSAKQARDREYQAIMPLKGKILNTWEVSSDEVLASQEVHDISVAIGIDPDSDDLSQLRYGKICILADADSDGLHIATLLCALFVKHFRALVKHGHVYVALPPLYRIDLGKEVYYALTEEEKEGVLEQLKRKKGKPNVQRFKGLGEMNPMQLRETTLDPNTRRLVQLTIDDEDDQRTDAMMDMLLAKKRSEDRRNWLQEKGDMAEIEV
T3 sequence (P0AFI2 whole entry, further chain): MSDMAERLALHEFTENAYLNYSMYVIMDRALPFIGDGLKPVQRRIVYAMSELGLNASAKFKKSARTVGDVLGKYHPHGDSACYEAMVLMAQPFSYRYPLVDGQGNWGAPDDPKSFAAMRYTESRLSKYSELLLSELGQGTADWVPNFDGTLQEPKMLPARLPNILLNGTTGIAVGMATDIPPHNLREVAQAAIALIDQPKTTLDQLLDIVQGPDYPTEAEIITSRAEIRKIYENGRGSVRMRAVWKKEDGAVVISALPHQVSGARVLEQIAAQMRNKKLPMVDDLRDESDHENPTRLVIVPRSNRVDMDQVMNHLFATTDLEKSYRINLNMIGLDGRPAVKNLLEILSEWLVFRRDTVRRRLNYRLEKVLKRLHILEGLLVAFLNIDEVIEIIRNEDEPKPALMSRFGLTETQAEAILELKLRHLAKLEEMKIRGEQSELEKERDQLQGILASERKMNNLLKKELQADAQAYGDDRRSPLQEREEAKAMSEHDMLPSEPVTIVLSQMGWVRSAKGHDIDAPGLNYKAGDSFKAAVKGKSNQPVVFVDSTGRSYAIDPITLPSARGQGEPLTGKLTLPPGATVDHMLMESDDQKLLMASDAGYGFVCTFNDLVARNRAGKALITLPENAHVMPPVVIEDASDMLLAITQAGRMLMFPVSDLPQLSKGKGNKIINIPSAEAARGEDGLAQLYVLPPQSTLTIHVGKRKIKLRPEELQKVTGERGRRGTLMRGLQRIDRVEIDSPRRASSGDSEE

Compound: Cn1ncc2cc(-c3cnnn3C3CCN(C(=O)Nc4cc(Cl)cc(Cl)c4)CC3)ccc21 [MRL-423]
- IC50 (E. coli DNA gyrase [1]): ~7.5 µM
- cleavage complex stabilization (E. coli DNA gyrase [2]): stabilizes cleavage complex formation in a dose-dependent fashion

Compound: COc1ccc(C)cc1NC(=O)N1CCC(n2nncc2-c2ccc3c(cnn3C)c2)CC1 [MRL-770]
- inhibition of E. coli DNA gyrase (gel) (E. coli DNA gyrase [1]; S1 Fig, pHOT-1 substrate): limited; also recorded: dose-dependent inhibition of enzyme activity

Compound: Cn1ncc2cc(-c3nnnn3C3CCN(C(=O)Nc4ccc(Cl)c(Cl)c4)CC3)ccc21 [MRL-1082]
- activity against P. aeruginosa DNA gyrase (P. aeruginosa DNA gyrase): active
- activity against E. coli topoisomerase IV (E. coli topoisomerase IV): does not inhibit
- reduction in culture viability (E. coli HS151; E. coli HS151, 2XMIC or greater, following 2–4 hours of treatment): greater than 3 log
- culture viability, below lower limit of quantitation (E. coli HS151; E. coli HS151, 4-8XMIC, after 8 hours): < 20 CFU/mL
- MIC (E. coli HS151; Escherichia coli, HS151, 24 h, read-out: MIC of isolates from treated culture): 0.0625 µg/mL
